Where a SMILES comes first, the peptide text is derived from it. Bridges are numbered along the chain shown (N, C = ends). [ ]: non-standard residue; d: D form. Trp(6-Cl) = N[C@@H](Cc1c[nH]c2cc(Cl)ccc12)C(=O)O; NMePhe(2,4-Me2) = CN[C@@H](Cc1ccc(C)cc1C)C(=O)O; dNMePhe(2,4-Me2) = CN[C@H](Cc1ccc(C)cc1C)C(=O)O; NMePhe(2-Me) = CN[C@@H](Cc1ccccc1C)C(=O)O; NMeNva = CCC[C@H](NC)C(=O)O

The values that follow come from patent publication US20250111889A1, “DE NOVO DESIGNED MACROCYCLIC OLIGOAMIDES” (UNIVERSITY OF WASHINGTON, priority 2022, published 2025).

One series deals with T1, MDM2 (Homo sapiens, UniProt Q00987).
T1 construct: purchased PerkinElmer AL3168C
T1 sequence (Q00987 whole entry): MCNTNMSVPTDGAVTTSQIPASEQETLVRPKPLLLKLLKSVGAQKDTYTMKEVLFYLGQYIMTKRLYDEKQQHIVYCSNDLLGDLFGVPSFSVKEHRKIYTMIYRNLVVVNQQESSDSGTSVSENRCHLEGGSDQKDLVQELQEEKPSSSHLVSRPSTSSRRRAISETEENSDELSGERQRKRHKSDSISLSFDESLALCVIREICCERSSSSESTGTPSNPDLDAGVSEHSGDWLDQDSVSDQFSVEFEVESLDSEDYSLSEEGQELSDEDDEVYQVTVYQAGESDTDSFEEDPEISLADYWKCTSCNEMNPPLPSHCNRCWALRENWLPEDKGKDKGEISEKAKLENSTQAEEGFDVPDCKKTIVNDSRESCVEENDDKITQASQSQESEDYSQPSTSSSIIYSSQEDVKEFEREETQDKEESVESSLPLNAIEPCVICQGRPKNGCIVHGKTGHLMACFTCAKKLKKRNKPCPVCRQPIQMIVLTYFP
Description: MDM2 assay (commercial alphalisa kit, PerkinElmer AL3168C). The series is classed as binding. Conditions: alphalisa kit per manufacturer's instructions; quantity not given. The protocol:
MDM2: The assay was performed using a commercially available alphalisa assay kit from PerkinElmer (part number AL3168C) following the manufacturer's instructions.
In general terms: Bead proximity is the source of the signal in Alpha formats.
As to `Cc1ccc(C[C@@H]2C(=O)N[C@@H](Cc3c[nH]c4cc(Cl)ccc34)C(=O)N(C)[C@@H](Cc3ccccc3C)C(=O)N[C@H](C(N)=O)CSCC(=O)N2C)c(C)c1` [Compound 35] ({CH2CO}-[dNMePhe(2,4-Me2)][Trp(6-Cl)][NMePhe(2-Me)]C-NH2; thioether N-4), inhibition was half-maximal at 20000 nM (IC50). The same measure, in the same setting: the result for `CCC[C@H]1C(=O)N[C@@H](Cc2c[nH]c3cc(Cl)ccc23)C(=O)N(C)[C@@H](Cc2ccc(C)cc2C)C(=O)N[C@H](C(N)=O)CSCC(=O)N1C` [Compound 32] ({CH2CO}-[NMeNva][Trp(6-Cl)][NMePhe(2,4-Me2)]C-NH2; thioether N-4) reads 100000 nM.

System in a further series: not listed separately
The experiment in a line: in vitro. The settings on record: PAMPA. The series is classed as in vitro ADME. The text has this:
We measured the passive membrane diffusion of all 29 macrocycles designed with the two approaches using the parallel artificial membrane permeability assay (PAMPA) (FIGS. 3, 4, and 16). Almost all of the macrocycles were quite membrane permeable: 16 of the 29 had log(Papp)'s greater than −6, and only three were not detected in the acceptor well. Under the same conditions, the small molecule drug propranolol achieved log(Papp) of −5.36 (FIG. 16). As expected, designs with exposed polar groups, particularly side chain hydroxyls and primary amides, had lower permeabilities. Overall, the hydrogen-bond containing designs were more permeable than the torsionally-optimized based designs, likely due to fewer exposed backbone polar groups.
PAMPA: Stock solutions of each peptide were prepared gravimetrically by dissolving ca. 1-3 mg of peptide in either 100% MeOH or 100% DMSO to produce ca. 1-10 mM peptide solutions. These stock solutions were stored at 4° C. when not in use. Samples for PAMPA experiments and calibration curves were prepared by diluting these stock solutions to produce 1.2 mL of 20 uM peptide in PBS supplemented with either 5% DMSO, or 10% MeOH. […] The concentration of each peptide in the donor and acceptor wells was quantified by LCMS after approximately 19 hours. […]
As for `CC(C)NCC(O)COc1cccc2ccccc12` (centres unmarked) [propranolol], the apparent permeability (Papp) at 20 uM was 4.37 ×10⁻⁶ cm/s.

The target in another series is T2, MCL-1 (Homo sapiens, UniProt Q07820).
T2 construct: GST
T2 sequence (Q07820 whole entry, species assumed): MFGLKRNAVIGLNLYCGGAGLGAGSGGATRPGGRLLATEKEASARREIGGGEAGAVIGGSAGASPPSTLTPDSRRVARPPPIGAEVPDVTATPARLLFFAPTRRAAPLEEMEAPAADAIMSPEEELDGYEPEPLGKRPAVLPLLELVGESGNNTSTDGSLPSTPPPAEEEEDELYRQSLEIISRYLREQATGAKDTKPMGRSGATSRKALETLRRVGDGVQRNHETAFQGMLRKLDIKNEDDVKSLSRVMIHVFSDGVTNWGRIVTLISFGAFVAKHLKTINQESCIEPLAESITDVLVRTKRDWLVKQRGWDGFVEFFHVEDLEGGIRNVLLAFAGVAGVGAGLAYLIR
Description: MCL-1 assay (HTRF, Anti-GST-Tb). The series is classed as binding. The settings on record: 10-dose singlet, 3-fold serial dilution starting at 200 uM; HTRF signal after 60 min. How it is done:
MCL-1: The compounds were tested in 10-dose IC50 singlet with a 3-fold serial dilution starting at 200 uM. Compounds in DMSO were added to enzyme solution by using Acoustic Technology. Compounds were incubated with enzyme for 10 min. at room temperature. Respective compounds were then added, and the mixture incubated for another 10 min. Finally, Anti-GST-Tb was added. After 60 min incubation, the HTRF signal was measured.
`COc1cccc(CCN2CC(=O)N[C@@H](C(C)C)CC(=O)NCc3cccc(c3)CC(=O)N[C@@H](Cc3ccc(Cl)c(Cl)c3)C2=O)c1` [Compound 29] had an IC50 of 22800 nM. Same read-out and setting: the result for `CCOCCN1CC(=O)NCc2ccccc2C(=O)N[C@@H](Cc2ccc(Cl)c(Cl)c2)C(=O)N(CCc2ccc(F)cc2)CC1=O` [Compound 19] reads 40600 nM; that for `CN1C(=O)CN(Cc2cccc(Br)c2)C(=O)CCCCNC(=O)[C@@H](Cc2ccc(C(C)(C)C)cc2)NC(=O)[C@@H]1Cc1ccc(Cl)c(Cl)c1` [Compound 121], 50100 nM. Same read-out and setting: in the case of `COc1cc(CN2CC(=O)NCc3ccccc3C(=O)N[C@@H](Cc3ccc(Cl)c(Cl)c3)C(=O)N(CCc3ccc(F)cc3)CC2=O)cc(OC)c1` [Compound 16] it was 13500 nM; in that of `Cc1ccc(C[C@@H]2NC(=O)CCCCNC(=O)CN(CCOc3c(C)cccc3C)C(=O)[C@@H](Cc3ccc(Cl)c(Cl)c3)N(C)C2=O)cc1` [Compound 119], 18900 nM. With `Cc1ccccc1CN1CC(=O)N[C@H](C(C)(C)C)C(=O)NCc2cccc(c2)CC(=O)N[C@H](Cc2ccc(Cl)c(Cl)c2)CC1=O` [Compound 11], half-maximal inhibition (IC50) was put at 4580 nM. `COc1cccc(CCN2CC(=O)N[C@H]3CC[C@H](CC3)CC(=O)N(CCc3ccc(C(F)(F)F)cc3)CC(=O)N(Cc3ccc(Cl)c(Cl)c3)CC2=O)c1` [Compound 18] came in with a concentration for half-maximal inhibition (IC50) of 28200 nM. The same measure, in the same setting: in the case of `CCC(CC)[C@H]1NC(=O)CN(Cc2ccc(Cl)c(Cl)c2)C(=O)[C@H](Cc2ccc(C(C)(C)C)cc2)NC(=O)CCCCNC1=O` [Compound 122] it was 12300 nM.

The target in the next series is T3, SARS-CoV-2 main protease (Severe acute respiratory syndrome coronavirus 2, UniProt P0DTD1).
T3 construct: SARS-CoV-2 main protease
The experiment in a line: SARS-CoV-2 main protease assay (fluorescence time-course). The series is classed as biochemical. Conditions: 10-dose singlet, 3-fold serial dilution starting at 200 uM; increase in fluorescence signal. The protocol: SARS-CoV-2 main protease: The compounds were tested in 10-dose IC50 singlet with a 3-fold serial dilution starting at 200 uM. The protease activities were monitored as a time-course measurement of the increase in fluorescence signal.
`Cc1ccccc1C[C@@H]1NC(=O)Cc2ccccc2NC(=O)C[C@H](Cc2c(F)c(F)c(F)c(F)c2F)NC(=O)[C@H](Cc2cccnc2)NC1=O` [Compound 139] gave an IC50 of 2370 nM. The same measure, in the same setting: in the case of `Cc1ccccc1C[C@@H]1NC(=O)Cc2ccccc2NC(=O)C[C@H](Cc2ccccc2Cl)NC(=O)[C@H](Cc2cccnc2)NC1=O` [Compound 133] it was 844 nM.

Turning to `Cc1ccccc1C[C@@H]1NC(=O)Cc2ccccc2NC(=O)C[C@H](Cc2ccccc2)NC(=O)[C@H](Cc2cccnc2)NC1=O` [Compound 218], half-maximal inhibition (IC50) was put at 17800 nM. On the same count and under the same terms, the result for `Cc1cccc(C[C@H]2CC(=O)Nc3ccccc3CC(=O)N[C@@H](Cc3cccc(C(F)(F)F)c3)C(=O)N[C@@H](Cc3cccnc3)C(=O)N2)c1` [Compound 138] reads 2140 nM; that for `O=C1C[C@H](Cc2ccccc2Cl)NC(=O)[C@H](Cc2cccnc2)NC(=O)[C@H](Cc2cccc(C(F)(F)F)c2)NC(=O)Cc2ccccc2N1` [Compound 144], 1260 nM. On the same count and under the same terms, the result for `Cc1cccc(C[C@H]2CC(=O)Nc3ccccc3CC(=O)N[C@@H](Cc3ccccc3C)C(=O)N[C@@H](Cc3cccnc3)C(=O)N2)c1` [Compound 135] reads 1470 nM; that for `O=C1C[C@H](Cc2cccc(Cl)c2)NC(=O)[C@H](Cc2cccnc2)NC(=O)[C@H](Cc2cccc(Cl)c2)NC(=O)Cc2ccccc2N1` [Compound 143], 2650 nM; that for `O=C1C[C@H](Cc2ccc(F)cc2)NC(=O)[C@H](Cc2cccnc2)NC(=O)[C@H](Cc2cccc(Cl)c2)NC(=O)Cc2ccccc2N1` [Compound 141], 1840 nM. Same read-out and setting: in the case of `O=C1C[C@H](Cc2c(F)c(F)c(F)c(F)c2F)NC(=O)[C@H](Cc2cccnc2)NC(=O)[C@H](Cc2cccc(C(F)(F)F)c2)NC(=O)Cc2ccccc2N1` [Compound 131] it was 4070 nM.

`O=C1C[C@H](Cc2ccc(Br)cc2)NC(=O)[C@H](Cc2cccnc2)NC(=O)[C@H](Cc2cccc(C(F)(F)F)c2)NC(=O)Cc2ccccc2N1` [Compound 137]: the IC50 turned out to be 1270 nM.

`O=C1C[C@H](Cc2ccc(Cl)c(Cl)c2)NC(=O)[C@H](Cc2cccnc2)NC(=O)[C@H](Cc2cccc(C(F)(F)F)c2)NC(=O)Cc2ccccc2N1` [Compound 136] showed an IC50 of 1470 nM.

Turning to `O=C1C[C@H](Cc2ccccc2Cl)NC(=O)[C@H](Cc2cccnc2)NC(=O)[C@H](Cc2cccc(Cl)c2)NC(=O)Cc2ccccc2N1` [Compound 132], the IC50 amounted to 1250 nM. Still for that read-out and setting: in the case of `Cc1ccccc1C[C@@H]1NC(=O)Cc2ccccc2NC(=O)C[C@H](Cc2ccc(Cl)c(Cl)c2)NC(=O)[C@H](Cc2cccnc2)NC1=O` [Compound 142] it was 1890 nM. In the case of `O=C1C[C@H](Cc2ccc(Br)cc2)NC(=O)[C@H](Cc2cccnc2)NC(=O)[C@H](Cc2cccc(Cl)c2)NC(=O)Cc2ccccc2N1` [Compound 134], the midpoint of inhibition, the IC50, lay at 1220 nM. The same measure, in the same setting: in the case of `Cc1ccccc1C[C@@H]1NC(=O)Cc2ccccc2NC(=O)C[C@H](Cc2cc(F)c(F)cc2F)NC(=O)[C@H](Cc2cccnc2)NC1=O` [Compound 140] it was 1530 nM.

The IC50 is the concentration needed to halve the response being measured. A lower IC50 goes with greater potency in that assay. The Papp is a coefficient for how fast a substance crosses the barrier. A low value points to poor permeation.
